Literature values as cited in patent US20160220687A1, “METALLOPROTEINASE-CLEAVABLE ALPHA-AMANITIN-DENDRIMER CONJUGATES AND METHOD OF TREATING CANCER” (priority 2015, published 2016).

Columns and labels:
[1] = test system: MCF7 breast cancer cells
[2] = test system: advanced gastric cancer; settings: patients with advanced gastric cancer, compared to placebo
[3] = test system: liver and kidney; settings: intravenous or intraperitoneal administration
[4] = test system: B16F10 melanoma cells; settings: mice injected with B16F10 melanoma cells

Q: With `N#Cc1ccc(C(c2ccc(C#N)cc2)n2cncn2)cc1` [Letrozole] as the compound, how does the “MMP2 and MMP9 levels” value [1] read?
A: efficient reduction

Q: For `CNC(=O)[C@@H](NC(=O)[C@H](CC(C)C)[C@H](O)C(=O)NO)C(C)(C)C` [Marimastat], which disease free survival [2] is on record?
A: significant improvement

Q: What about the overall survival [2] of the same compound?
A: significant improvement

Q: Which “pathological effects on the liver and kidney” value [3] does the source give for `CC[C@H](C)[C@@H]1NC(=O)CNC(=O)[C@@H]2Cc3c([nH]c4cc(O)ccc34)[S@+]([O-])C[C@H](NC(=O)CNC1=O)C(=O)N[C@@H](CC(N)=O)C(=O)N1C[C@H](O)C[C@H]1C(=O)N[C@@H]([C@@H](C)[C@@H](O)CO)C(=O)N2` [alpha-amanitin] here?
A: serious pathological effects on the liver and kidney

Q: Which “number of pulmonary metastases” value [4] does the source give for TIMP1: an inhibitor of MMP9 here?
A: reduced
